Earlier results on three molecules are cited in US7834030B2, “Phenyl-[1,2,4]-oxadiazol-5-one derivatives, pharmaceutical compositions and therapeutic use thereof” (Sanofi-Aventis, priority 2005, dated 2010).

Like-named read-outs stand apart in the source and are kept apart here.

The conditions of series [1]: healthy volunteers, two weeks clinical trials; cited from earlier work.
The conditions of series [2]: cynomolgus monkeys; cited from earlier work.
The conditions of series [3]: rhesus monkeys; cited from earlier work.
For series [4] the following is noted: obese, insulin resistant rhesus monkeys; cited from earlier work.
For series [5] the following is noted: diabetic animal model; cited from earlier work.

With `CCCc1c(OCCCSc2nnc(SCC(=O)O)s2)ccc(C(C)=O)c1O` [YM-16638], the plasma lipids result in series [1] was “acts in a similar manner”; in series [2], “significantly lowers”; in series [3], “significantly lowers”.
As for `Cc1cc(SCc2sc(-c3ccc(C(F)(F)F)cc3)nc2C)ccc1OCC(=O)O` [GW501516], in series [4], the HDL-cholesterol entry is “raises”, the insulin levels result is “decreases”, the “plasma LDL-cholesterol” value is recorded as “decreases” and the triglycerides entry is on record as “decreases”.
As for `CCCc1c(OCCCOc2ccc(OCC(=O)O)cc2)ccc(C(C)=O)c1O` [Example L-165041], the plasma cholesterol entry in series [5] was “raises plasma cholesterol”.
